Assay results from paper PMC7047128, “The Putative TCP-1 Chaperonin Is an Important Player Involved in Sialic Acid-Dependent Host Cell Invasion by Toxoplasma gondii” (Frontiers in Microbiology, 2020).

Target: T1, TgTCP-1 (putative TCP-1 chaperonin, TGME49_318410) (Toxoplasma gondii, UniProt A0A125YLR8)
T1 construct: full-length CDS, aa 1-537, N-terminal GST tag kept (pGEX-4T-1), E. coli BL21 (DE3), about 85 kDa
Test: pull-down on sialic acid-agarose with competition by free sialic acid, anti-GST Western blot
Assay type: binding
Conditions: 1 uM GST-TgTCP-1; free sialic acid 0.001-100 mg/mL; PBS wash; 4 C

T1 sequence (A0A125YLR8 entry or part of it): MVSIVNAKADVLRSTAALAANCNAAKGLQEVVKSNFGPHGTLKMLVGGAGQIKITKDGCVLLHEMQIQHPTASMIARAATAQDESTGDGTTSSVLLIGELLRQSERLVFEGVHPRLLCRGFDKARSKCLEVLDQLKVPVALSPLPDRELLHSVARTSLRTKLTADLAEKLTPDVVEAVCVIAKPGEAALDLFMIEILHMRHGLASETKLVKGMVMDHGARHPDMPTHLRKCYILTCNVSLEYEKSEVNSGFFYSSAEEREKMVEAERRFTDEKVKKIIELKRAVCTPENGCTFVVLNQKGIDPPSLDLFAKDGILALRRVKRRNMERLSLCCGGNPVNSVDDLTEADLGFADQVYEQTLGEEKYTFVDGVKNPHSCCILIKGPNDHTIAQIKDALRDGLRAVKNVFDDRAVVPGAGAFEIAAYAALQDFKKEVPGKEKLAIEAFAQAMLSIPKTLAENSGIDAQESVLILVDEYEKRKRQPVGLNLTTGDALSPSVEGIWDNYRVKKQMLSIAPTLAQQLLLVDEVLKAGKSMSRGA

Question: Which “pull-down on sialic acid-agarose with competition by free sialic acid, anti-GST” value does the source give for `CC(=O)N[C@H]1[C@H]([C@H](O)[C@H](O)CO)OC(O)(C(=O)O)C[C@@H]1O` (stereo partly shown) [sialic acid] here?
Answer: Its value is “binding of GST-TgTCP-1 to sialic acid-agarose was inhibited by sialic acid in a dose dependent manner”.
